We go through 52 sequences from the supplement of paper PMC11208160.
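Note: IS621 bridge recombinase in Escherichia coli cells against a fixed T5 target plasmid.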

A short description of the data set: recombinant UMI read abundance after kanamycin selection (control-corrected) (log10(CPM+1)); higher = more efficient recombination; extreme values may be limits of the assay; sequences stand for … in AGTGCAGAGAAAATCGGCCAGTTTTCTCTGCCTGCAGTCCGCATGCCGTGGGACCCCTTGGGTTCTAACCTGTTGCCTAGATTTATGCAGCGGACTGCCTTTCTCCCAAAGTGATAAACCGG…AGGTTGGTTTCACT; site = the 11-nt donor. In short, it runs like this:
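After plating on IPTG (0.07 mM) plus kanamycin, or unselected, in two replicates, recombinant UMIs were PCR-amplified across the donor–target junction and sequenced. The cells were Escherichia coli co-electroporated with a UMI-tagged donor and donor-binding-loop pair library and a target plasmid with a fixed target and T7-inducible IS621 bridge recombinase. Values are log10(CPM+1), with CPM averaged over replicates and scaled by control-derived factors.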
“TGGAATCCATGGACCGGTTTTCCCGGTAATCCGTATTTGGT (site CGGAATCCTAA)”: the “recombinant UMI read abundance (log10)” value turned out to be 0.
With “TGGAATCCATGGACCGGTTTTCCCGGTAATCCGTATTTGGT (site TGGAATCCTAC)” the figure was 0; with “TGGACTACATGGACCGGTTTTCCCGGTAATCCGTATTTGGA (site TGGACTACTTC)”, 0.786.
With “TGGACTTCATGGACCGGTTTTCCCGGTAATCCGTATTTGTG (site TGGACTTCTCA)” the figure was 0.248; with “TGGATTCCATGGACCGGTTTTCCCGGTAATCCGTATTTGAT (site TGGATTCCTAT)”, 0; with “TGGCAGGCATGGACCGGTTTTCCCGGTAATCCGTATTTGGC (site TGGCAGGCTGC)”, 0.909.
The result for “TGGCAGGCATGGACCGGTTTTCCCGGTAATCCGTATTTGGC (site TGGCCGGCTGC)” reads 0; that for “TGGCAGGCATGGACCGGTTTTCCCGGTAATCCGTATTTGGC (site TGGCGGGCTGC)”, 0.
With “TGGCAGGCATGGACCGGTTTTCCCGGTAATCCGTATTTGGC (site TGGCTGGCTGC)”, the “recombinant UMI read abundance (log10)” value was determined as 0.
On to “TGGCCGGCATGGACCGGTTTTCCCGGTAATCCGTATTTGCC (site TGGCCGGCTGA)”, for which the “recombinant UMI read abundance (log10)” value was found to be 0.00339.
For “TGGCCGGCATGGACCGGTTTTCCCGGTAATCCGTATTTGCC (site TGGCCGGCTGC)”, the “recombinant UMI read abundance (log10)” value came to 0.
The result for “TGGCCGGCATGGACCGGTTTTCCCGGTAATCCGTATTTGCC (site TGGCCGGCTGG)” reads 1.05.
The result for “TGGCCGGCATGGACCGGTTTTCCCGGTAATCCGTATTTGCC (site TGGCCGGCTGT)” reads 0.00896; that for “TGGCCGTCATGGACCGGTTTTCCCGGTAATCCGTATTTGGC (site TGGCCGACTGC)”, 0.
With “TGGCCGTCATGGACCGGTTTTCCCGGTAATCCGTATTTGGC (site TGGCCGCCTGC)”, the “recombinant UMI read abundance (log10)” value was found to be 0.
For “TGGCCGTCATGGACCGGTTTTCCCGGTAATCCGTATTTGGC (site TGGCCGGCTGC)”, the “recombinant UMI read abundance (log10)” value worked out at 0.
Consider “TGGCCGTCATGGACCGGTTTTCCCGGTAATCCGTATTTGGC (site TGGCCGTCTGC)”, for which the “recombinant UMI read abundance (log10)” value is 0.431.
Turning to “TGGCGAGCATGGACCGGTTTTCCCGGTAATCCGTATTTGTT (site TGGCGAGCTAA)”, the “recombinant UMI read abundance (log10)” value amounted to 1.04.
With “TGGCGGACATGGACCGGTTTTCCCGGTAATCCGTATTTGCA (site TGGCGGACTTG)” the figure was 1.67.
With “TGGCTTACATGGACCGGTTTTCCCGGTAATCCGTATTTGGC (site TGGCTTACTGC)”, the “recombinant UMI read abundance (log10)” value came to 0.536.
The result for “TGGGAATCATGGACCGGTTTTCCCGGTAATCCGTATTTGCG (site TAGGAATCTCG)” reads 1.35; that for “TGGGAATCATGGACCGGTTTTCCCGGTAATCCGTATTTGCG (site TCGGAATCTCG)”, 1.85.
With “TGGGAATCATGGACCGGTTTTCCCGGTAATCCGTATTTGCG (site TGGGAATCTCG)” the figure was 2.5.
With “TGGGAATCATGGACCGGTTTTCCCGGTAATCCGTATTTGCG (site TTGGAATCTCG)” the figure was 0.459.
In the case of “TGGGAGACATGGACCGGTTTTCCCGGTAATCCGTATTTGCA (site AGGAAGACTTG)”, the “recombinant UMI read abundance (log10)” value came to 0.261.
With “TGGGAGACATGGACCGGTTTTCCCGGTAATCCGTATTTGCA (site TGGGAGACTTG)” the figure was 1.7; with “TGGGAGGCATGGACCGGTTTTCCCGGTAATCCGTATTTGAC (site TGGGAGGCTGT)”, 1.46; with “TGGGTGCCATGGACCGGTTTTCCCGGTAATCCGTATTTGAC (site TGGGTGCCTGT)”, 0.
“TGGTAGCCATGGACCGGTTTTCCCGGTAATCCGTATTTGTT (site TGGTAGCCTAA)”: the “recombinant UMI read abundance (log10)” value came out at 0.256.
With “TGGTCATCATGGACCGGTTTTCCCGGTAATCCGTATTTGAG (site TGGTCATCTCT)” the figure was 0.0288; with “TGGTGCCCATGGACCGGTTTTCCCGGTAATCCGTATTTGGT (site TGGTGCCCTAC)”, 0.00779; with “TGGTGTCCATGGACCGGTTTTCCCGGTAATCCGTATTTGAG (site TGGTGTCCTCT)”, 0.0312.
The result for “TGGTTATCATGGACCGGTTTTCCCGGTAATCCGTATTTGTC (site TGGTTATCTGA)” reads 0.968; that for “TGTAAATCATGGACCGGTTTTCCCGGTAATCCGTATTTGTT (site TGTAAATCTAA)”, 1.13; that for “TGTAACGCATGGACCGGTTTTCCCGGTAATCCGTATTTGTG (site TGTAACGCTCA)”, 0.0113.
Consider “TGTACAACATGGACCGGTTTTCCCGGTAATCCGTATTTGAC (site TGTACAACTGT)”, for which the “recombinant UMI read abundance (log10)” value worked out at 0.315.
The result for “TGTACAACATGGACCGGTTTTCCCGGTAATCCGTATTTGAC (site TGTACACCTGT)” reads 0.
The result for “TGTACAACATGGACCGGTTTTCCCGGTAATCCGTATTTGAC (site TGTACAGCTGT)” reads 0; that for “TGTACAACATGGACCGGTTTTCCCGGTAATCCGTATTTGAC (site TGTACATCTGT)”, 0.295; that for “TGTACACCATGGACCGGTTTTCCCGGTAATCCGTATTTGTC (site TGTACACCTGA)”, 0.
The result for “TGTACACCATGGACCGGTTTTCCCGGTAATCCGTATTTGTC (site TGTACACCTGC)” reads 0; that for “TGTACACCATGGACCGGTTTTCCCGGTAATCCGTATTTGTC (site TGTACACCTGG)”, 0.
In the case of “TGTACACCATGGACCGGTTTTCCCGGTAATCCGTATTTGTC (site TGTACACCTGT)”, the “recombinant UMI read abundance (log10)” value came out at 0.
With “TGTACAGCATGGACCGGTTTTCCCGGTAATCCGTATTTGAC (site TGTACAACTGT)” the figure was 0; with “TGTACAGCATGGACCGGTTTTCCCGGTAATCCGTATTTGAC (site TGTACACCTGT)”, 0; with “TGTACAGCATGGACCGGTTTTCCCGGTAATCCGTATTTGAC (site TGTACAGCTGT)”, 1.75.
On to “TGTACAGCATGGACCGGTTTTCCCGGTAATCCGTATTTGAC (site TGTACATCTGT)”, for which the “recombinant UMI read abundance (log10)” value was 0.647.
With “TGTACATCATGGACCGGTTTTCCCGGTAATCCGTATTTGAC (site TGTACAACTGT)” the figure was 0; with “TGTACATCATGGACCGGTTTTCCCGGTAATCCGTATTTGAC (site TGTACACCTGT)”, 0; with “TGTACATCATGGACCGGTTTTCCCGGTAATCCGTATTTGAC (site TGTACAGCTGT)”, 0.
With “TGTACATCATGGACCGGTTTTCCCGGTAATCCGTATTTGAC (site TGTACATCTGT)” the figure was 0; with “TGTAGCTCATGGACCGGTTTTCCCGGTAATCCGTATTTGAA (site TGTAGCTCTTT)”, 0.301.
